The values below come from patent publication US11357752B2, “Carolacton and derivatives thereof for use in the treatment of cell proliferation disorders” (Helmholtz-Zentrum für Infektionsforschung GmbH, priority 2017, dated 2022).

One experiment has as its target T1, hsMTHFD2 (Homo sapiens, UniProt P13995).
T1 construct: His-tag (vector pHis-TEV); made in house; host or cells: E. coli BL21 (DE3)
T1 sequence (P13995 36-350): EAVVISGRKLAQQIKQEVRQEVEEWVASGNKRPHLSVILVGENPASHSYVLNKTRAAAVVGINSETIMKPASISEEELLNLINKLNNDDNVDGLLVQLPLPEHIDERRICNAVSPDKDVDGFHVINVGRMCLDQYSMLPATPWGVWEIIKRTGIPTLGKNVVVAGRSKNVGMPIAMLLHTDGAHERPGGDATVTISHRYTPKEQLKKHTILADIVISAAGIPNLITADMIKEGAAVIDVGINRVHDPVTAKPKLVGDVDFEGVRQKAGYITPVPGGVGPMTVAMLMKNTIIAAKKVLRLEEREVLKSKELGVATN
Put plainly: FoID dehydrogenase (DH) enzyme assay. Type of experiment: biochemical. As for the experimental part:
(§1) (6R,S)-5,10-Methylene-5,6,7,8-tetrahydrofolic acid ((6R,S)-5,10-CH2-THF), calcium salt and (6R,S)-5,10-Methenyl-5,6,7,8-tetrahydrofolic acid ((6R,S)-5,10-CH=THF) chloride were purchased from Schircks Laboratories (Bauma, Switzerland) and were used as substrates for FoID dehydrogenase and cyclohydrolase enzyme assays, respectively. Only the R-isomer, which accounts for 50% of (6R,S)-5,10-CH2-THF and (6R,S)-5,10-CH=THF, respectively, is used by the enzyme. (6R,S)-5,10-CH2-THF was dissolved in N2-spargeled basic buffer (50 mM Tris-HCl (pH 8.0), 100 mM β-mercaptoethanol) as described by Sah and Varshney, 2015a (6R,S)-5,10-CH=THF was first dissolved in DMSO as a 100 mM stock solution.
(§2) Because FoID is a bifunctional enzyme, dehydrogenase and cyclohydrolase activities were determined for FoID enzyme kinetics, respectively. The dehydrogenase activity of FoID was assayed for its substrate 5,10-CH2-THF and cofactor NADP+ (in the case of MTHFD2, NAD+ was used as cofactor) based on monitoring the formation of 5,10-CH=THF while the cyclohydrolase activity of FoID was determined for its substrate 5,10-CH=THF by monitoring the hydrolysis of 5,10-CH2-THF. The enzyme kinetics for the dehydrogenase activity of all FoIDs except hsMTHFD1_DC were determined at 30° C. in 50 mM Tris-HCl (pH 7.5), 30 mM β-mercaptoethanol. The hsMTHFD1_DC dehydrogenase activity was measured in 25 mM MOPS (pH 7.3), 30 mM β-mercaptoethanol at 30° C. To measure the enzyme kinetics constants for 5,10-CH2-THF, for example in the case of ecFoID, the NADP concentration was fixed at 1 mM and the concentration of 5,10-CH2-THF varied from 5 μM to 1,500 μM (R-isomer). Similarly, to measure the kinetic constants of ecFoID for NADP+, the concentration of 5,10-CH2-THF (R-isomer) was fixed at 1 mM and the concentration of NADP+ varied from 10 μM to 1,500 μM. For different FoIDs, the varied concentration range of substrates could be different. The 50 μL reactions of dehydrogenase assays were initiated by adding appropriate amounts enzyme (4 nM ecFoID, 4 nM spFoID, 15 nM hsMTHFD1_DC, 20 nM hsMTHFD2, 20 nM G8S, 20 nM Q98H, 10 nM K54N, 200 nM ΔK54R55 in the corresponding assays) and terminated with 50 μL 1 M HCl after 2 min incubation at 30° C. To monitor the formation of 5,10-CH=THF, the absorbance of the reaction mixture was monitored at 350 nm in micro UV cuvettes (BRAND, Essex, Connecticut, USA). The concentration of 5,10-CH=THF produced in the reaction was determined using an extinction co-efficient of 0.0249 μM-1 cm-1. Cyclohydrolase activity for each FoID was assayed in the same buffer as dehydrogenase activity at 30° C. but for 30 s. The concentration of FoID used in each assay was 5 nM of ecFoID, spFoID and hsMTHFD1_DC, respectively, and 2 nM of hsMTHFD2. The consumption of 5,10-CH=THF was measured by recording the absorbance of the reactions at 355 nm using the TECAN Infinite 200 PRO equipped with a monochromator. To measure the enzyme kinetic constants, different concentrations of 5,10-CH=THF (varied from […]) were used in […] reaction mixtures. The inhibition constants (Ki) of carolacton on FoID were determined by measuring the apparent Km values when adding certain amounts of carolacton to the enzyme reactions. For ecFoID, 10 nM carolacton was added in the dehydrogenase assay and 50 nM carolacton was used in the cyclohydrolase assay. For spFoID, 25 nM carolacton was added in both dehydrogenase assay and cyclohydrolase assay. For hsMTHFD1_DC, 30 nM carolacton was added in the dehydrogenase assay and 10 nM in the cyclohydrolase assay. […] To compare the inhibition effects of carolacton between the different FoIDs, the half maximal inhibitory concentration (IC50) of carolacton on the same amount of enzyme was determined for FoIDs involved in this study. The enzyme concentration used to determine dehydrogenase activity IC50 was 10 nM, and the enzyme used for cyclohydrolase IC50 measurements was 5 nM. All enzyme kinetics measurements were performed as independent triplicates. […]

The next experiment concerns the target T2, hsMTHFD1 DC301 (Homo sapiens, UniProt P11586).
T2 construct: We therefore expressed and purified hsMTHFD2 and hsMTHFD1_DC to test them biochemically; His-tag (vector pHis-TEV); made in house; host or cells: E. coli BL21 (DE3)
T2 sequence (P11586 2-291 limits assumed): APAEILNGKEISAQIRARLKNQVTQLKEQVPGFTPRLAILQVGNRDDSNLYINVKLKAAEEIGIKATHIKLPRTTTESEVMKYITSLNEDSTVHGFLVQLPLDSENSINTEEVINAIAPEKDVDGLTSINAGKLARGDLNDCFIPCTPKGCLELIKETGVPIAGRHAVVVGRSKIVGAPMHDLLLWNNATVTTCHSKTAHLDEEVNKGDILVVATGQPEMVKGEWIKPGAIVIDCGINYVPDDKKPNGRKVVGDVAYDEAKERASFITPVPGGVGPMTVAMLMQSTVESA
Briefly: FoID dehydrogenase (DH) enzyme assay. The experiment is classed as biochemical. As for the experimental part: as §1, §2

Where [1] appears, read: 10 nM enzyme, read-out: IC50, carolacton inhibition on DH activity.
Where [2] appears, read: vs 5,10-CH2-THF, read-out: Ki (5,10-CH2—THF), carolacton inhibition on DH activity.

Molecules are shown by their SMILES. Read-outs that look alike come from different tables or passages of the source.

Consider `CO[C@H](CC(=O)O)[C@@H](C)C(=O)[C@H](C)/C=C(\C)[C@H]1OC(=O)[C@H](O)[C@H](O)/C=C/[C@H](C)CCC[C@@H]1C` [Carolacton, carolacton], for which the IC50 (usually the concentration that inhibits the measured activity by half) at hsMTHFD2 (setting [1]) worked out at 6.5 nM; at hsMTHFD1 DC301 (setting [1]) it was 38 nM. For the same molecule, the Ki – broadly, the equilibrium dissociation constant of an inhibitor or competing ligand from its target – on hsMTHFD2 (cofactor is NAD in the case of hsMTHFD2, read-out: Ki (NADP^+)^a, carolacton inhibition on DH activity) turned out to be 16.7 nM; on hsMTHFD2 (setting [2]), 6.42 nM; at hsMTHFD1 DC301 (setting [2]) it was 5.93 nM; on hsMTHFD1 DC301 (vs cofactor NADP+, read-out: Ki (NADP^+), carolacton inhibition on DH activity) it was 58.7 nM.
